Measurements reported in the kinase profiling compilation of Christmann-Franck et al. (2016).
Where “and” joins values, the source holds several entries; their conditions need not be identical. Equal entries are not always repeated.

Columns and labels:
Test in all cases: radiometric filter-binding kinase assay, Kinase HotSpot
Conditions in all cases: compound 0.5 µM; ATP 10 µM
CLK4 (human) = CLK4 (human) (UniProt Q9HAZ1)
PAK6 (human) = PAK6 (human) (UniProt Q9NQU5)
CDK3 CCNE1 (human) = CDK3 CCNE1 (human) (UniProt Q00526+P24864)
DYRK1A (human) = DYRK1A (human) (UniProt Q13627)
TAOK2 (human) = TAOK2 (human) (UniProt Q9UL54)
PDPK1 (human) = PDPK1 (human) (UniProt O15530)
MARK1 (human) = MARK1 (human) (UniProt Q9P0L2)
MKNK2 (human) = MKNK2 (human) (UniProt Q9HBH9)
EPHB2 (human) = EPHB2 (human) (UniProt P29323)
PRKG1 (human) = PRKG1 (human) (UniProt Q13976)
MAPK14 (human) = MAPK14 (human) (UniProt Q16539)
ULK3 (human) = ULK3 (human) (UniProt Q6PHR2)
CAMK2B (human) = CAMK2B (human) (UniProt Q13554)
PRKD3 (human) = PRKD3 (human) (UniProt O94806)
[1] = test system: SGK1 (human), O00141 [S422D]
KIT (human) = KIT (human) (UniProt P10721)
EPHA6 (human) = EPHA6 (human) (UniProt Q9UF33)
TGFBR2 (human) = TGFBR2 (human) (UniProt P37173)
PTK2 (human) = PTK2 (human) (UniProt Q05397)
LCK (human) = LCK (human) (UniProt P06239)
MYO3B (human) = MYO3B (human) (UniProt Q8WXR4)
CSNK2A1 (human) = CSNK2A1 (human) (UniProt P68400)
RPS6KB1 (human) = RPS6KB1 (human) (UniProt P23443)
PRKACG (human) = PRKACG (human) (UniProt P22612)
MAPKAPK5 (human) = MAPKAPK5 (human) (UniProt Q8IW41)
STK16 (human) = STK16 (human) (UniProt O75716)
[2] = target: TYK2 JH1 catalytic (human) (UniProt P29597)
CHEK1 (human) = CHEK1 (human) (UniProt O14757)
RET (human) = RET (human) (UniProt P07949)
CSNK1A1 (human) = CSNK1A1 (human) (UniProt P48729)
PHKG2 (human) = PHKG2 (human) (UniProt P15735)
[3] = target: JAK1 JH1 catalytic (human) (UniProt P23458)
YES1 (human) = YES1 (human) (UniProt P07947)
BRAF (human) = BRAF (human) (UniProt P15056)
KDR (human) = KDR (human) (UniProt P35968)
RPS6KB2 (human) = RPS6KB2 (human) (UniProt Q9UBS0)
STK38 (human) = STK38 (human) (UniProt Q15208)
TLK2 (human) = TLK2 (human) (UniProt Q86UE8)
PRKCA (human) = PRKCA (human) (UniProt P17252)
DYRK3 (human) = DYRK3 (human) (UniProt O43781)

Chain of TGFBR2 (human) (P37173 whole entry, looked up): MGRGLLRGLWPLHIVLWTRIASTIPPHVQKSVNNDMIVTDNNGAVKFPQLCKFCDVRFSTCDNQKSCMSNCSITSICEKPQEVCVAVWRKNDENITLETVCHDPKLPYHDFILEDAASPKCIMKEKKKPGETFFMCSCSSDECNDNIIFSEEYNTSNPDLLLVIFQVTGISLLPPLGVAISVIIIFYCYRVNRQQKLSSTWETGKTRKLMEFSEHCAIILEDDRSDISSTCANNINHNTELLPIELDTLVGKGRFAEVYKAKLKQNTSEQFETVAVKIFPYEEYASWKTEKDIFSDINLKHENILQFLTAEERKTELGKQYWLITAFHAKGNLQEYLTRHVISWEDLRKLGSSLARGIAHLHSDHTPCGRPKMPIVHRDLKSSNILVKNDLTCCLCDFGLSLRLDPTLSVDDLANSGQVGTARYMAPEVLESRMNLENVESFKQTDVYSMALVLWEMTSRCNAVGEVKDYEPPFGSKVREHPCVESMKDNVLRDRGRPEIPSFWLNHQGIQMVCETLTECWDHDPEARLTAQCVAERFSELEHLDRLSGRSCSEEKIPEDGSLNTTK
Chain of MKNK2 (human) (Q9HBH9 whole entry, looked up): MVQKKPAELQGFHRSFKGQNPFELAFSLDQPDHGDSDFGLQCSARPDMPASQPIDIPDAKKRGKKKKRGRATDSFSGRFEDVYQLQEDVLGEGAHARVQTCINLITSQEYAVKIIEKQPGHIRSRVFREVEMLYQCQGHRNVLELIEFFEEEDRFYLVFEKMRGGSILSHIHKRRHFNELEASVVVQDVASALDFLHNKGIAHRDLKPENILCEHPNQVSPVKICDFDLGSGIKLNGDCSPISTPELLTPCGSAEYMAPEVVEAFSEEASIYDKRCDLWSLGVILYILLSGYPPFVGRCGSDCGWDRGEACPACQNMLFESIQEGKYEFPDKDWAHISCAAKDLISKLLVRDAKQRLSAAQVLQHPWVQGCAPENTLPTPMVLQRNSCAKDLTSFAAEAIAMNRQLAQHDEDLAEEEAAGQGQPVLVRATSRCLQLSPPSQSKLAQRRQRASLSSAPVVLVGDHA
Chain of MYO3B (human) (Q8WXR4 whole entry, looked up): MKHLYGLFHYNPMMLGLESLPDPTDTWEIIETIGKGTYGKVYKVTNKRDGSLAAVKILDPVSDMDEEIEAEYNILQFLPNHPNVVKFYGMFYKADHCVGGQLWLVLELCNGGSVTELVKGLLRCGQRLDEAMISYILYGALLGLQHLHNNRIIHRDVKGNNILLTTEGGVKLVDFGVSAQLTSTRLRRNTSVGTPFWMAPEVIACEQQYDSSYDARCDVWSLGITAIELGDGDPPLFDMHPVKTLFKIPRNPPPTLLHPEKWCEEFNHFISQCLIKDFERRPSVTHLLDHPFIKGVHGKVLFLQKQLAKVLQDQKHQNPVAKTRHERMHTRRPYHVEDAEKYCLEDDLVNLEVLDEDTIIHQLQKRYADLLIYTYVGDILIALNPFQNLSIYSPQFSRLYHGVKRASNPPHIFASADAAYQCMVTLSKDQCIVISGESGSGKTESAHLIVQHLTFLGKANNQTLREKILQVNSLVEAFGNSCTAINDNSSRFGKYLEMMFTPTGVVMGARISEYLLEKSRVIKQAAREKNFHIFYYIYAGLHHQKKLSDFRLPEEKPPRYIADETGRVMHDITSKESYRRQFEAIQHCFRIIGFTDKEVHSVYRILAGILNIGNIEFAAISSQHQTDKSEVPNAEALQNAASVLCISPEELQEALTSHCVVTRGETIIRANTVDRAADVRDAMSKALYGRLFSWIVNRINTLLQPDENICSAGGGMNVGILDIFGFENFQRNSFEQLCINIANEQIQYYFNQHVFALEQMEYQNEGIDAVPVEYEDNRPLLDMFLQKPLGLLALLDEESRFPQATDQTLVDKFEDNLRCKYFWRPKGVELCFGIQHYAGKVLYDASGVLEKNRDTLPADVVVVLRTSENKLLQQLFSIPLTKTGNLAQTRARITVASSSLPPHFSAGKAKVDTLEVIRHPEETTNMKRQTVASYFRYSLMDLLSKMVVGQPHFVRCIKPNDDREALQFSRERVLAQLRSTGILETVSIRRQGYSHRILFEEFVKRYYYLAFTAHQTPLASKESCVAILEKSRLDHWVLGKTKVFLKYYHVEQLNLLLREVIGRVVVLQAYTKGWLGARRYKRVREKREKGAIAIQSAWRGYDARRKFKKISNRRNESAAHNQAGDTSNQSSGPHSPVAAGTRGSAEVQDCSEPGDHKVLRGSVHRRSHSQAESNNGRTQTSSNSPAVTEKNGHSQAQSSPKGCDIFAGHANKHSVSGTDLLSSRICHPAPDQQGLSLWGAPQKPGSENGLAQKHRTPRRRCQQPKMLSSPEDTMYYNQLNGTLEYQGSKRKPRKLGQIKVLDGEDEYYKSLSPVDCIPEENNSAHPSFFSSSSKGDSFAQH
Chain of BRAF (human) (P15056 whole entry, looked up): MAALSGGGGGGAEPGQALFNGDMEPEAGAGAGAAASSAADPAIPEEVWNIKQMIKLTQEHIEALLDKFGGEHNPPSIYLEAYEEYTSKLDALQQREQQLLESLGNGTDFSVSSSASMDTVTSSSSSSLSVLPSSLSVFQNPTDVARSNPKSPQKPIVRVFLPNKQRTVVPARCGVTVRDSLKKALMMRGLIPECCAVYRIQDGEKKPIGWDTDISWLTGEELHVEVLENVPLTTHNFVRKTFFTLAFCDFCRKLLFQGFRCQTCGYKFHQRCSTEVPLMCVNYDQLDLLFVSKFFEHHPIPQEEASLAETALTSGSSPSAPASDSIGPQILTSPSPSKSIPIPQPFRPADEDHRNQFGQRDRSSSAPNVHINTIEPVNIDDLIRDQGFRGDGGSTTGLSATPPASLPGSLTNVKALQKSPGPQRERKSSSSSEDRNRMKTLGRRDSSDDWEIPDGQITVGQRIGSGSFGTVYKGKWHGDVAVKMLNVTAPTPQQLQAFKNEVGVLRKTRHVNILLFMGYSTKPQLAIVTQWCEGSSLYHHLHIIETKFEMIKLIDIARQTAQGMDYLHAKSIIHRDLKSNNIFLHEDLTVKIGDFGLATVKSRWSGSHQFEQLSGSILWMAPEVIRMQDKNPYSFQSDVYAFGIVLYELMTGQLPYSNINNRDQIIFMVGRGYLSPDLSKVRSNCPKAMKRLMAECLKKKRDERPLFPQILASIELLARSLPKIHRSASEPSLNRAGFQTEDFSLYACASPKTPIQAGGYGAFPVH
Chain of JAK1 JH1 catalytic (human) (P23458 whole entry, looked up): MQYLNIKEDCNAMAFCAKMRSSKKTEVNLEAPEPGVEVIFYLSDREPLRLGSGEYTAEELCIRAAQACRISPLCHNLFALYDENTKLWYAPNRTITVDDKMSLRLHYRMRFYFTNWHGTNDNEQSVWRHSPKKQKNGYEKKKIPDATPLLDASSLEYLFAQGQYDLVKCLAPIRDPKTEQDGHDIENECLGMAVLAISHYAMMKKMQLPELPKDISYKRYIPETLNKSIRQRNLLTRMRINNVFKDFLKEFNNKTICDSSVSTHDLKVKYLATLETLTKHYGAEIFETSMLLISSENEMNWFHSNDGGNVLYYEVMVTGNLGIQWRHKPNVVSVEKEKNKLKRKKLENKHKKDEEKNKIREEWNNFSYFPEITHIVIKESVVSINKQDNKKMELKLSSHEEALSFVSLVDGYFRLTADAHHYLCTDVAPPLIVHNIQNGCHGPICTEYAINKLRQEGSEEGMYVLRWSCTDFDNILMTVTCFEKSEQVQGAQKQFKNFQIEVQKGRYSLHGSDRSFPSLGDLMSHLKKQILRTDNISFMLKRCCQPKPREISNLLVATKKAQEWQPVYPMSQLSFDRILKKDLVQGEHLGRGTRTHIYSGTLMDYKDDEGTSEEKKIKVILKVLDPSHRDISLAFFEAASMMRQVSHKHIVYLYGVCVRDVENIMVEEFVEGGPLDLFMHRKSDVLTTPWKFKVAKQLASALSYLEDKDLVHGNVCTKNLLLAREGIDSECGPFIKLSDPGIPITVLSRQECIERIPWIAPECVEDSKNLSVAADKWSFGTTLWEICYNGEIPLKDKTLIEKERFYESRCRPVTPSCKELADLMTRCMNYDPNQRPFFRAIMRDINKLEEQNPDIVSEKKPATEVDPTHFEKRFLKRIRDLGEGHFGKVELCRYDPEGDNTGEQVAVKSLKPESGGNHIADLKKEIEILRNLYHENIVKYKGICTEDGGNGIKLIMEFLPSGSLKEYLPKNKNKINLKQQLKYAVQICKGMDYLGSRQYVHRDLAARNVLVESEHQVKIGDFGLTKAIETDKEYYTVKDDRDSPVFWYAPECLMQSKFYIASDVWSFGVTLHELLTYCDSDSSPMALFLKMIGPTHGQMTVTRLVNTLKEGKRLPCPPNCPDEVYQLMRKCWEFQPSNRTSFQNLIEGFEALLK
Chain of YES1 (human) (P07947 whole entry, looked up): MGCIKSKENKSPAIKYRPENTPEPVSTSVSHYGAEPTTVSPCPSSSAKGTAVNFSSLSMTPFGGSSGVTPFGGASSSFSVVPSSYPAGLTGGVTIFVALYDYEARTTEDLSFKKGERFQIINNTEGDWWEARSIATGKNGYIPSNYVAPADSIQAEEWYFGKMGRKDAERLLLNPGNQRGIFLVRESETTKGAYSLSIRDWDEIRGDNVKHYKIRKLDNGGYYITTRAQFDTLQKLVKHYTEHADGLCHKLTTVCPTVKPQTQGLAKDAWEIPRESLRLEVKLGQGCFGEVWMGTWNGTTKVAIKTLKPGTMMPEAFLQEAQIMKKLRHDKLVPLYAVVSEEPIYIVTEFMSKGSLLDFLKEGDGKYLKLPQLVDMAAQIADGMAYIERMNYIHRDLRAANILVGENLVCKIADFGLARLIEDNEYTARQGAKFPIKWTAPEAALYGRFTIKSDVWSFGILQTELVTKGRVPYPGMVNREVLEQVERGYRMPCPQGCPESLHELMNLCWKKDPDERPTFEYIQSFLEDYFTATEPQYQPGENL

Work on `N#C/C(=C1/Nc2ccccc2S1)c1ccnc(NCCc2cccnc2)n1` yielded a residual activity (CLK4 (human)) of 43.8%, a residual activity (PAK6 (human)) of 97.6% and a residual activity (CDK3 CCNE1 (human)) of 92.3%. It also gave a residual activity (DYRK1A (human)) of 52.7%, a residual activity (TAOK2 (human)) of 86.4% and a residual activity (PDPK1 (human)) of 95.9%. The residual activity (MARK1 (human)) was 97.6%, the residual activity (MKNK2 (human)) was 51% and the residual activity (EPHB2 (human)) was 112%. For the same compound, the residual activity (PRKG1 (human)) was 97.5% and 99.4%, the residual activity (MAPK14 (human)) was 89.1% and the residual activity (ULK3 (human)) was 99.1%. It also gave a residual activity (CAMK2B (human)) of 97.3%, a residual activity (PRKD3 (human)) of 64.7% and a residual activity [1] of 100%. For the same compound, the residual activity (KIT (human)) was 93.6%, the residual activity (EPHA6 (human)) was 87.1% and the residual activity (TGFBR2 (human)) was 102%. The residual activity (PTK2 (human)) was 93%, the residual activity (LCK (human)) was 98.3% and the residual activity (MYO3B (human)) was 96.1%. It also gave a residual activity (CSNK2A1 (human)) of 22.1%, a residual activity (RPS6KB1 (human)) of 98.2% and a residual activity (PRKACG (human)) of 101%. For the same compound, the residual activity (MAPKAPK5 (human)) was 98.3%, the residual activity (STK16 (human)) was 79.2% and the residual activity [2] was 83.2%. For the same compound, the residual activity (CHEK1 (human)) was 94.6%, the residual activity (RET (human)) was 70.1% and the residual activity (CSNK1A1 (human)) was 80%. It also gave a residual activity (PHKG2 (human)) of 99.5%, a residual activity [3] of 113% and a residual activity (YES1 (human)) of 89.1%. The residual activity (BRAF (human)) was 96.6%, the residual activity (KDR (human)) was 99.7% and the residual activity (RPS6KB2 (human)) was 96.5%. It also gave a residual activity (STK38 (human)) of 100%, a residual activity (TLK2 (human)) of 102% and a residual activity (PRKCA (human)) of 94.3%. The residual activity (DYRK3 (human)) was 103%.

In the case of `COc1cc2c(Nc3ccc(Br)cc3F)ncnc2cc1OCC1CCN(C)CC1`, the residual activity (CLK4 (human)) is reported as 84.3%, the residual activity (PAK6 (human)) is reported as 105% and the residual activity (CDK3 CCNE1 (human)) is reported as 92.9%. For the same compound, the residual activity (DYRK1A (human)) was 106%, the residual activity (TAOK2 (human)) was 104% and the residual activity (PDPK1 (human)) was 91.3%. The residual activity (MARK1 (human)) was 83.7%, the residual activity (MKNK2 (human)) was 86.9% and the residual activity (EPHB2 (human)) was 24.4%. The residual activity (PRKG1 (human)) was 96.6% and 99.8%, the residual activity (MAPK14 (human)) was 91.8% and the residual activity (ULK3 (human)) was 105%. It also gave a residual activity (CAMK2B (human)) of 98.2%, a residual activity (PRKD3 (human)) of 91.7% and a residual activity [1] of 115%. For the same compound, the residual activity (KIT (human)) was 71.4%, the residual activity (EPHA6 (human)) was 3.27% and the residual activity (TGFBR2 (human)) was 102%. The residual activity (PTK2 (human)) was 100%, the residual activity (MYO3B (human)) was 84.2% and the residual activity (CSNK2A1 (human)) was 112%. It also gave a residual activity (PRKACG (human)) of 106%, a residual activity (MAPKAPK5 (human)) of 94.7% and a residual activity (STK16 (human)) of 101%. It also gave a residual activity [2] of 97.7%, a residual activity (CHEK1 (human)) of 94.4% and a residual activity (CSNK1A1 (human)) of 102%. For the same compound, the residual activity (PHKG2 (human)) was 99.1%, the residual activity [3] was 99.1% and the residual activity (YES1 (human)) was 11.3%. It also gave a residual activity (BRAF (human)) of 94.8%, a residual activity (RPS6KB2 (human)) of 101% and a residual activity (STK38 (human)) of 100%. For the same compound, the residual activity (TLK2 (human)) was 79.7%, the residual activity (PRKCA (human)) was 97.1% and the residual activity (DYRK3 (human)) was 96%.

With `O=C1NC(=O)c2cc(Nc3ccc(F)cc3)c(Nc3ccc(F)cc3)cc21` the residual activity (CLK4 (human)) was 88.6%, the residual activity (PAK6 (human)) was 106% and the residual activity (CDK3 CCNE1 (human)) was 98.9%. It also gave a residual activity (DYRK1A (human)) of 95.6%, a residual activity (TAOK2 (human)) of 94.7% and a residual activity (PDPK1 (human)) of 102%. The residual activity (MARK1 (human)) was 98.9%, the residual activity (MKNK2 (human)) was 101% and the residual activity (EPHB2 (human)) was 89.3%. For the same compound, the residual activity (PRKG1 (human)) was 103% and 94.3%, the residual activity (MAPK14 (human)) was 88.3% and the residual activity (ULK3 (human)) was 96.3%. For the same compound, the residual activity (CAMK2B (human)) was 98.7%, the residual activity (PRKD3 (human)) was 96.7% and the residual activity [1] was 103%. It also gave a residual activity (KIT (human)) of 97.2%, a residual activity (EPHA6 (human)) of 66.8% and a residual activity (TGFBR2 (human)) of 85.2%. It also gave a residual activity (PTK2 (human)) of 96%, a residual activity (LCK (human)) of 98.4% and a residual activity (MYO3B (human)) of 98.2%. It also gave a residual activity (CSNK2A1 (human)) of 95.7%, a residual activity (RPS6KB1 (human)) of 95.5% and a residual activity (PRKACG (human)) of 101%. For the same compound, the residual activity (MAPKAPK5 (human)) was 93.4%, the residual activity (STK16 (human)) was 85.8% and the residual activity [2] was 80.6%. For the same compound, the residual activity (CHEK1 (human)) was 104%, the residual activity (RET (human)) was 104% and the residual activity (CSNK1A1 (human)) was 88%. It also gave a residual activity (PHKG2 (human)) of 97.1%, a residual activity [3] of 91.5% and a residual activity (YES1 (human)) of 86.6%. It also gave a residual activity (BRAF (human)) of 94.2%, a residual activity (KDR (human)) of 97.9% and a residual activity (RPS6KB2 (human)) of 93.9%. The residual activity (STK38 (human)) was 85.5%, the residual activity (TLK2 (human)) was 93.5% and the residual activity (PRKCA (human)) was 99.3%. It also gave a residual activity (DYRK3 (human)) of 97.1%.
